# What was measured:
# [1] = treatment of MAS; cited from earlier work
# IFN-induced signature = conditions: clinical trial of anakinra in SJIA, Quartier et al; vs placebo, regardless of response status; cited from earlier work
# MAS patients = conditions: cited from earlier work
# SJIA patients = conditions: observed MAS rates in phase III trials, even if underlying SJIA well controlled; cited from earlier work
# [2] = test system: perforin-deficient mice infected with murine CMV; conditions: cited from earlier work
# [3] = test system: SJIA patient with recurrent MAS; assay: Use of Tadekinig-alfa in an SJIA patient with recurrent MAS; type: in vivo, human; conditions: one SJIA patient with recurrent MAS
molecule,measurement,setting,value
COc1cc([C@@H]2c3cc4c(cc3[C@@H](O[C@@H]3O[C@@H]5CO[C@@H](C)O[C@H]5[C@H](O)[C@H]3O)[C@H]3COC(=O)[C@H]23)OCO4)cc(OC)c1O [etoposide],associated toxicity / side effects,[1],"Life threatening bone marrow suppression, short-term, and hematologic malignancies later in life"
anakinra,strength of the IFN-induced signature,IFN-induced signature,sustained increase
same,treatment of MAS,MAS patients; literature reports,successful treatment of MAS
canakinumab,protection against MAS,SJIA patients,do not provide protection against MAS
rilonacept,occurrence of MAS in treated patients,MAS patients; literature report,MAS has been seen
tocilizumab,protection against MAS,SJIA patients,do not provide protection against MAS
"synthetic IL-18BP: synthetic IL-18 binding protein administered to mice (protein, UniProt Q9Z0M9 29-193, looked up) Interleukin-18-binding protein: TSAPQTTATVLTGSSKDPCSSWSPAVPTKQYPALDVIWPEKEVPLNGTLTLSCTACSRFPYFSILYWLGNGSFIEHLPGRLKEGHTSREHRNTSTWLHRALVLEELSPTLRSTNFSCLFVDPGQVAQYHIILAQLWDGLKTAPSPSQETLSSHSPVSRSAGPGVA",liver damage,[2],ameliorated liver damage
same,overall survival,[2],no change
same,production of proinflammatory cytokines,[2],remained high
"Tadekinig-alfa (protein, UniProt O95998 31-194, looked up, recombinant IL18BP) Interleukin-18-binding protein: TPVSQTTTAATASVRSTKDPCPSQPPVFPAAKQCPALEVTWPEVEVPLNGTLSLSCVACSRFPNFSILYWLGNGSFIEHLPGRLWEGSTSRERGSTGTQLCKALVLEQLTPALHSTNFSCVLVDPEQVVQRHVVLAQLWAGLRATLPPTQEALPSSHSSPQQQG",frequency of MAS episodes,[3],remained unchanged
same,severity of MAS episodes,[3],reduced the severity of MAS episodes
